Source: patent US10471154B2, “Spirocyclic indolone polyethylene glycol carbonate compound, composition, preparation method and use thereof” (priority 2016, dated 2019)
Marks after values point to notes of the source that are not given here.

Tests used:
[1] = Body weights of SJSA-1 implanted nude mice (side effects); type: in vivo
Procedure: (§1) Tumor cells (SJSA-1) were harvested under aseptic conditions, and were adjusted to a cell density of 1×10^7 cells/ml with sterile physiological saline. 0.2 ml was inoculated under the skin of the axilla of nude mice, and the tumor was grown to have a diameter of 1 cm. The tumor was removed under aseptic conditions and cut into tumor masses with a size of 2.0 mm×2.0 mm, and evenly inoculated under the skin of the axilla of the nude mice. When the tumor volume reached about 250 mm^3 (8 days after inoculation), the animals were administered in groups with 9 mice in each group, and the animals with poor tumor growth were excluded. The control group used physiological saline as a control. […] Body weight was weighted 3 times a week, and the length a and the width b of the tumor were measured with a vernier caliper, and the volume of the tumor was calculated according to the formula V=a×b^2/2, where a is the length of the tumor and b is the width of the tumor. 21 Days after the inoculation, the nude mice were dislocated and photographed, and then the tumor was peeled off, weighed and photographed. RTV (relative tumor volume) and tumor inhibition rate were calculated. At the same time, the peripheral blood of nude mice was taken to count blood cells.
(§2) The data were processed by EXCEL software and expressed by Mean±SD, and the inter-group analysis was statistically processed using t test.

[2] = Drug preparation: dissolving in physiological saline; type: physicochemical; conditions: 3.0 mg/ml (Example 14: 5.0 mg/ml) in sterile physiological saline
Procedure: (§3) Doxorubicin: prepared in sterile physiological saline at a concentration of 0.3 mg/ml; the administration dosage was 3.0 mg/kg; and the administration volume was 10 ml/kg.
(§4) rac-SIP: prepared in a solvent consisting of 4% DMA, 30% PEG400, and 66% (by volume) sterile distilled water to a solution with a concentration of 1.5 mg/ml; the administration dosage was 30.0 mg/kg, and the administration volume was 20 ml/kg.
(§5) rac-SIP-PEG-2: prepared in a solvent consisting of polyoxyethylene castor oil:95% ethanol:sterile physiological saline (1.5:1.5:7 by volume) to drug solutions with concentrations of 1.5 mg/ml and 3.0 mg/ml. The administration dosages were 15.0 mg/kg and 30.0 mg/kg. The administration volume was 10 ml/kg.
(§6) rac-SIP-PEG-3: prepared in sterile physiological saline to a solution with a concentration of 3.0 mg/ml. The administration dose was 30.0 mg/kg. The administration volume was 10 ml/kg.
(§7) chiral-R-SIP-PEG-3: prepared in sterile physiological saline to a solution with a concentration of 3.0 mg/ml. The administration dose was 30.0 mg/kg. The administration volume was 10 ml/kg.
(§8) rac-SIP-PEG-7: prepared in sterile physiological saline to a solution with a concentration of 3.0 mg/ml. The administration dose was 30.0 mg/kg. The administration volume was 10 ml/kg.
(§9) The administration dose was 50.0 mg/kg. The administration volume was 10 ml/kg.

physchem = conditions: 25 °C, water, thermodynamic from solid
SJSA-1 xenografted tumor = experiment: Inhibitory effect on the growth of SJSA-1 xenografted tumor in nude mice; type: in vivo; conditions: for Inhibition rate (%) on the basis of tumor volume: End
Procedure: 72 Female Balb/c/nu nude mice (weighting 15-19 g) were provided by Beijing Huafukang BioScience Co., Inc. Certificate No.: SOCK (Beijing) 2014-0004.
as §3, §4, §5, §6, §7, §8, §9
Doxorubicin: at a dose of 3.0 mg/kg, administered intraperitoneally, once every other day, for a total of 6 times.
rac-SIP: at a dose of 30.0 mg/kg, administered by gavage, once a day, 6 times a week, for a total of 9 times.
rac-SIP-PEG-2: at a dose of 30.0 mg/kg, administered intraperitoneally, once a day, 6 times a week, for a total of 9 times.
rac-SIP-PEG-3: at a dose of 30.0 mg/kg, administered intraperitoneally, once a day, 6 times a week, for a total of 9 times.
chiral-R-SIP-PEG-3: at a dose of 30.0 mg/kg, administered intraperitoneally, once a day, 6 times a week, for a total of 9 times.
rac-SIP-PEG-7: at a dose of 30.0 mg/kg, administered intraperitoneally, once a day, 6 times a week, for a total of 9 times.
as §1, §2

[3] = End (21 days after inoculation), doxorubicin 3.0 mg/kg i.p. x6, rac-SIP 30.0 mg/kg gavage x9, SIP-PEG compounds 30.0 mg/kg i.p. x9, rac-SIP-MPEG-2000 50.0 mg/kg i.p. x9
[4] = vs saline control, doses and routes as in E5

COCCOCCOCCOC(=O)OC(C)OC(=O)c1ccc(NC(=O)[C@@H]2N[C@@H](CC(C)(C)C)[C@@]3(C(=O)Nc4cc(Cl)ccc43)[C@H]2c2cccc(Cl)c2F)c(OC)c1 (single isomer, unassigned) [chiral-R-SIP-PEG-3]
body weight increased, compared with the solvent control group ([1]; 30.0 mg/kg i.p.): about 11%
Body Weights X ± SD (g), End [1, 3]: 19.2 ± 1.2 g
Body Weights X ± SD (g), Start ([1]; Start of administration, dose per group 3.0/30.0/50.0 mg/kg as in Table 1): 17.3 ± 0.9 g
dissolving in physiological saline for administration [2]: could be directly dissolved in physiological saline
solubility at 24 h (physchem): > 8000 µg/mL
Tumor volumes X ± SD (mm^3), End (SJSA-1 xenografted tumor; [3]): 59.4 ± 46.3*** mm^3
Tumor volumes X ± SD (mm^3), Start (SJSA-1 xenografted tumor; Start of administration (8 days after inoculation)): 252.9 ± 68.3 mm^3
inhibitory effect on tumor growth compared with PEG-free rac-SIP given by gastrointestinal administration (SJSA-1 xenografted tumor; administered by injection, 30.0 mg/kg (rac-SIP-MPEG-2000 50.0 mg/kg)): stronger inhibitory effect
Weights of Tumor X ± SD (SJSA-1 xenografted tumor; tumor peeled off 21 days after inoculation, doses and routes as in E5): 0.06 ± 0.05 g
Inhibition rate (%) on the basis of tumor volume (SJSA-1 xenografted tumor; [4]): 97.90%
Inhibition rate (%) on the basis of tumor volume (SJSA-1 xenografted tumor; vs saline control, doses and routes as in E5, listed as chiral-R-PEG-3): 97.9%
Inhibition rate (%) on the basis of tumor weight (SJSA-1 xenografted tumor; [4]): 97.84%
